The subject of one data set is primary cortical neurons. Nature of the data set: Primary cortical neurons incubated with psychosine and control sphingolipids (neurites, MTT assay). To be noted: for effect on number of neurites: embryonic primary cortical neurons, psychosine 0.1, 1 and 10 μM.
Another data set relates to fast axonal transport. Nature of the data set: Vesicle motility assays in isolated axoplasm. Format: biochemical, squid Loligo pealii. Particulars: for effect on both modes of axonal transport: 1 μM and 5 μM psychosine perfused; for effect on both antero and retrograde axonal transport rates: 5 μM perfused into extruded axoplasm. The method, then: Axoplasm was extruded from giant axons of the squid Loligo pealii (Wood Hole Marine Biological Laboratory) as described previously. Szebenyi et al., Neuron 40:41-52 (2003) and Morfini et al., Nat. Neurosci. 9:907-916 (2006). Sphingolipids were diluted into X/2 buffer (175 mM potassium aspartate, 65 mM taurine, 35 mM betaine, 25 mM glycine, 10 mM HEPES, 6.5 mM MgCl2, 5 mM EGTA, 1.5 mM CaCl2 and 0.5 mM glucose, pH 7.2) supplemented with 2-5 mM ATP and 20 μl was added to perfusion chambers. Preparations were analyzed on a Zeiss Axiomat with a 100×, 1.3 n.a. objective, and DIC optics. […]. Organelle velocities were measured with a Photonics Microscopy C2117 video manipulator (Hamamatsu).
To test whether psychosine exerts a role in neurodegeneration by affecting axonal transport, an experiment was performed using axoplasms isolated from giant squid axons, an approach used to examine the effects on antero and retrograde transport rates of a variety of molecules. Morfini et al., Neuromolecular Med. 2:89-99 (2002).
Whether psychosine is a pathogenic effector capable of triggering axonal defects in the Twitcher mouse was assessed. To test psychosine effect on FAT, a model of vesicular transport based on the squid Loligo Pelai was employed. This approach has been extensively characterized to examine the effects of different pathogenic proteins. Morfini et al., Neuromolecular. Med. 2:89-99 (2002). Candidate molecules were perfused in a microchamber containing the axoplasm preparations and the average motility of MBO was measured over a period of time. This model has played a fundamental role in the discovery of kinesin-1S (Brady, Nature 317:73-75 (1985)) and the regulatory mechanisms of FAT (Morfini et al., Neuromolecular. Med. 2:89-99 (2002); Morfini et al., Embo J. 23:2235-2245 (2004); and Ratner et al., J. Neurosci. 18:7717-7726 (1998)) as well as the pathogenic mechanism of various proteins and neurotoxins (Morfini et al., Proc. Natl. Acad. Sci. USA 104:2442-2447 (2007); Morfini et al., Nat. Neurosci. 9:907-916 (2006); and Pigino et al., Proc. Natl. Acad. Sci. USA 106:5907-5912 (2009)). Furthermore, antero and retrograde modes of transport in squid axoplasm are identical to those of intact axons (Lasek and Brady, Nature 316:645-647 (1985)) and all regulatory mechanisms discovered in the squid axoplasm are identical to the mammalian neuron.
Pure preparations of extruded axoplasm isolated from the squid were perfused with different concentrations of psychosine (or related controls) and the speed of MBO was recorded over time.

A further data set concerns Twitcher-YFPax mice. Nature of the data set: Flecainide treatment of Twitcher-YFPax mice: twitching and axonopathic figures by YFP confocal microscopy. The class given is in vivo, mouse. An excerpt:
Bechtold et al., Brain 128:18-28 (2005). […] FIG. 23.
To examine whether protection of axons accompanied the flecainide-mediated amelioration of twitching, spinal cord tissue was collected at P30, and longitudinal sections of the ventral white matter were observed by confocal microscopy for axonal integrity, using the YFP expression as reporter.
Spinal cord and sciatic nerves were removed from treated and non-treated mice, providing tissue for regular confocal microscopy. Paraformaldehyde-fixed longitudinal 50-μm thick cryosections of spinal cord were used. Whole mount preparations of sciatic nerves were used for confocal analysis. Nerve samples were thoroughly Z-imaged for YEP excitation on a Zeiss Meta-confocal microscope. The number of fragmented or discontinued axons per area in samples from Twi-YFPax mice (treated and non-treated) were counted and the mean values compared to those from WT-YFPax controls. Plotting these numbers against postnatal days allowed a determination of when axonal damage starts and the extent of the effect of each neuroprotective treatment at any given time. Axonal integrity was determined by visualizing continuous YFP fluorescence along a single axon over several hundreds of microns, while visualization of axonal fragments, varicosities, and/or swellings were considered a sign of axonal damage.

Another data set concerns NCX1. Put plainly: Immunoblot of NCX1 in spinal cord extracts of flecainide-treated Twitcher mice. The class given is in vivo, mouse. On the procedure: Tissues were isolated and either frozen for long term storage or directly homogenized in lysis buffer (1 mM PMSF, 2 mM Sodium Orthovanadate, 1 mM NaF, 20 mM Tris HCl pH 7.4, 1% Triton X100, 150 mM NaCl, 5 mM MgCl2, 300 nM Okadaic acid). Samples were then briefly sonicated on ice and spun down at 5000 rpm for 5 min to remove the debris. The amount of protein of the supernatant was then quantified with the Bradford assay (Biorad) and equal amount of proteins were loaded on a 4-12% Bis-Tris gel (Invitrogen). After protein determination, samples were diluted to the same concentration and 10-20 μg of total protein electrophoresed on 4-12% Tris-glycine Nupage (Invitrogen) gels at 80 V in MOPS-SDS running buffer. After at 80 mV the gels were transferred for 2 hour at 120 PVDF on a PVDF membrane (Biorad). The membrane was blocked in 5% milk, 1% BSA, 0.05% Tween 20 in Tris Glycine buffer (blocking solution), then probed with primary antibodies overnight at 4° C. and with the secondary horse radish peroxidase conjugated antibodies for 1 hour at room temperature. […] The membrane was washed for at least one hour after the primary and secondary antibody incubations and developed in the Enhanced Luminescence kit (Thermo Scientific). After exposure, the bands were quantified with the software imageJ and the genes of interest were normalized to the relative loading control.
In general terms: Immunoblotting shows a protein as a band on a membrane.

For data set [1], the system named is EAE, spinal cord injury, and hypoxic injury. Particulars: cited from earlier work; for prevention of axonal loss: EAE, spinal cord injury, and hypoxic injury.
In a further data set the test system is PKC. Particulars: cited from earlier work.
A further data set relates to PP1. Nature of the data set: PP1 enzyme activity assay in cortical neurons incubated with psychosine. Format: cell-based, mouse. The method, then:
Samples were processed for quantitation of PP1 with the Molecular Probes RediPlate™ 96 EnzChek® Serine/Threonine Phosphatase Assay Kit (Molecular Probe), as described by the manufacturer. Samples were homogenized in buffer (50 mM Tris-HCl pH 7.0, containing 0.1 mM CaCl2, 125 μg/ml BSA, 0.05% Tween 20) using a IKA Ultra-Turrax T8 homogenizer. An equal amount of protein was loaded in each well of the 96-well plate and fluorescence was read at an excitation of 370 nm and an emission of 460 nm.

Data set [2] concerns psychosine-mediated neurotoxicity. Nature of the data set: Psychosine-mediated neurotoxicity with GSK3β inhibitor L803. Particulars: no experimental details given.
For data set [3] the following is noted: calcium-sensitive dye, Invitrogen; cited from earlier work.
[4] abbreviates: perfusion with control D-Sphingosine.

“Also recorded” adds a separate entry of the source. Square brackets hold non-standard residues; d marks the D form. Ends that are not written are not given here. pS = N[C@@H](COP(=O)(O)O)C(=O)O

Data on 12 molecules can be found in patent publication US20120156180A1, “COMPOSITIONS AND METHODS FOR THE TREATMENT OF KRABBE AND OTHER NEURODEGENERATIVE DISEASES” (The Board of Trustees of the University of Illinois, priority 2009, published 2012).

Experimental for primary cortical neurons: Cell cultures of cortical neurons were prepared as previously described. […] E16 pregnant females were sacrificed, the brains of the litter were collected, and the cortex was isolated. The brain was chopped, treated with 0.25% trypsin and then passed through a fire polished pipette. The cells were then plated in DMEM (Mediatech) supplemented with 10% fetal bovine serum (FBS) and, after 2 hours, the medium was changed to Neurobasal medium supplemented with B27. For cell survival, the MTT assay (Chemicon) was performed as indicated by the supplier. Briefly, 5000 cells/well were plated in a 96 well plate, and the stimuli were administered for 24 hours. At the end of the incubation time, the MTT reagent was added and, after 4 hours, the reaction was stopped and the absorbance was read at 570 nm. […] Psychosine, D-Sphingosine, and C6-Ceramide were purchased from Sigma and resuspended in ethanol to the desired concentration.
To test the hypothesis that the presence of psychosine was detrimental to the survival of these neurons, the effect of psychosine treatment on embryonic primary cortical neurons was tested. […] The cytotoxicity of psychosine was determined with the MTT assay, which directly measures mitochondrial activity (FIG. 20L).

`CCCCCCCCCCCCC/C=C/[C@@H](O)[C@H](CO)NC(=O)CCCCC` [C6 ceramide, C6-Ceramide]: in the data set on primary cortical neurons, the “effect on number of neurites” value was “comparable”.

Turning to `CCCCCCCCCCCCC/C=C/[C@@H](O)[C@@H](N)CO` [D-Sphingosine], the “effect on speed of anterograde or retrograde transport” value with fast axonal transport (control lipid perfused) is “did not affect the speed of anterograde or retrograde transport”. In addition, in the data set with fast axonal transport (setting [4]), the “transport rate, anterograde FAT” value was 1.5-2 mm/sec and the “transport rate, retrograde transport” value is 1-1.4 mm/sec. For the same molecule, the “effect on number of neurites” value in the data set with primary cortical neurons is reported as “did not exert any effect”.

Regarding `C[S+]([O-])c1ccc(-c2nc(-c3ccncc3)c(-c3ccc(F)cc3)[nH]2)cc1` (centres unmarked) [SB203580], in the data set on fast axonal transport, the “prevention of GM1-mediated inhibition of anterograde fast axonal transport” value is recorded as “prevented GM1-mediated inhibition of anterograde fast axonal transport” and the “prevention of sphingomyelin inhibition of anterograde fast axonal transport” value is reported as “prevented”.

For `O=C(NCC1CCCCN1)c1cc(OCC(F)(F)F)ccc1OCC(F)(F)F` (centres unmarked) [flecainide], the “onset of twitching (percentage of mice twitching)” value in the data set on Twitcher-YFPax mice (30 mg/kg body weight/day from P5 or P9 until P30, at 15, 20, 25 and 30 days of age) was “delayed onset of twitching”. Moreover, the “protection of axons in the spinal cord” value in the data set with Twitcher-YFPax mice (daily subcutaneous 30 mg/kg/day starting from P2) is given as “significantly protected axons in the spinal cord; also recorded: even stronger protective effect”. The “reduction of number of structural pathologies (axonopathic figures per area) to motor axons” value in the data set with Twitcher-YFPax mice (early treatment from P5, 30 mg/kg/day, spinal cord at P30) is “about 50%”. Also, the “frequency of axonopathic figures in the ventral spinal cord” value in the data set with Twitcher-YFPax mice (late treatment from P9, 30 mg/kg/day, spinal cord at P30) is reported as “not significantly different from that in vehicle-treated animals”. Besides, the “NCX1 expression in spinal cord” value in the data set on NCX1 (early flecainide treatment (P5)) was “reduced NCX1 expression at early (P20) and late (P30) ages; also recorded: reduced the expression of NCX1”; in the data set on NCX1 (late flecainide treatment (P9)) it was “Reduction of NXC1 was not detected; also recorded: no differences in NCX1 expression”. The “reduction of axonal degeneration” value in data set [1] (30 mg/kg/day, models of demyelinating EAE) is “sufficient to reduce axonal degeneration”. Further, the “prevention of axonal loss” value in data set [1] is “successfully prevented major axonal loss”. Moreover, in [1] (models of acute and chronic demyelination), the “sodium channel firing, sodium influx and axon protection” value is “successful in reducing excessive firing of sodium channels, decreasing sodium influx, and protecting axons”.

As for `C=C1[C@@H](O)[C@@H]2O[C@]3(CC[C@H](/C=C/[C@@H](C)[C@@H]4CC(C)=C[C@@]5(O[C@H](C[C@@](C)(O)C(=O)O)CC[C@H]5O)O4)O3)CC[C@H]2O[C@@H]1[C@@H](O)C[C@H](C)[C@H]1O[C@@]2(CCCCO2)CC[C@H]1C` [okadaic acid], the “prevention of psychosine-induced inhibition of fast axonal transport” value with fast axonal transport (200 nM okadaic acid co-perfused with 5 μM psychosine) was “prevented much of the blockage of axonal transport; also recorded: prevented FAT inhibition induced by psychosine”.

Regarding `O=C1NC(=O)C(c2ccccc2)(c2ccccc2)N1` [phenytoin], the “prevention of axonal loss” value in data set [1] is on record as “successfully prevented major axonal loss”.

`CCCCCCCCCCCCC/C=C/[C@@H](O)[C@@H](N)CO[C@@H]1O[C@H](CO)[C@H](O)[C@H](O)[C@H]1O` [psychosine, galactosylsphingosine]: the “effect on both modes of axonal transport” value in the data set with fast axonal transport is “strong inhibition of both modes of axonal transport”; with fast axonal transport (listed as Psychosine), “strongly inhibited both modes of FAT”. In addition, the “effect on both antero and retrograde axonal transport rates” value in the data set on fast axonal transport was “rapid reduction of both antero and retrograde axonal transport rates; also recorded: strong inhibitory effect on both antero and retrograde transport”. For the same molecule, in the data set on PKC, the inhibition of kinases entry is recorded as “known to inhibit kinases such as PKC”. The PP1 activity result in the data set on PP1 (acutely purified embryonic cortical neurons incubated with psychosine) is “PP1 activity was induced; also recorded: dose-dependent increase in PP1 activity”; with PP1 (cortical neurons, incubation with psychosine for 1 hour), “PP1 activity increased”. Further, the “effect on number of neurites” value with primary cortical neurons is recorded as “decrease in the number of neurites”. For the same molecule, the “cytotoxicity, MTT assay” value with primary cortical neurons (primary cortical neurons, 1 μM, 24 hours) was “toxic even at low concentrations”.

Take KEAPPAPPQ[pS]P [L803]: the “effect on psychosine-mediated neurotoxicity” value in data set [2] was “decreased psychosine-mediated neurotoxicity”.

For Sulfatides, in the data set on fast axonal transport, the “effect on both antero and retrograde axonal transport rates” value was “inhibited both anterograde and retrograde modes of fast axonal transport”.

Regarding chondroitin sulfate, the “effect on both antero and retrograde axonal transport rates” value in the data set with fast axonal transport is given as “no detectable effect”.

Usually Kd stands for the equilibrium constant for the complex coming apart. Consider fluo-4, for which the Kd in [3] is 345 nM.

Turning to sphingomyelin, in the data set with fast axonal transport (5 μM perfused), the “effect on anterograde mode of fast axonal transport” value is on record as “inhibited the anterograde mode of fast axonal transport only” and the “effect on retrograde mode of fast axonal transport” value is “did not show any effect on the retrograde mode of transport”.
